In patent US20130029884A1, “BIOCIDE FORMULATIONS” (ENVIROSYSTEMS, INC., priority 2011, published 2013):

Assays:
[1] = tested on: sulfate reducing bacteria (SRB); assay: microbiological kill study in field water (bottle growth test), sulfate reducing bacteria; type: cell-based; settings: field water from a well in Texas; active biocide 94 to 500 ppm tested
Protocol: (§1) Microbiological studies were carried out with the formulation of Example 1 and compared to tests with other known biocides. The field water used for testing came from a well in Texas. The biocides were tested at varying concentrations of the active biocide in the field water at active biocide concentrations from 94 parts per million (ppm) to 500 ppm. The biocide of Example 1 was tested along with several known biocides.
(§2) Microbiological kill studies were carried out in field waters considered to be problematic.
(§3) A field water sample was used to dilute the formulation and growth media was added. […] For the SRB concentrations up to 150 ppm PCMX were studied. […] For the APB samples, concentrations of up to 100 ppm PCMX were studied. […] The diluted sample was also tested after the sample had experienced four freeze/thaw cycles and the sample with growth media added was tested with PCMX concentrations up to 100 ppm PCMX.
(§4) For the 42 ppm hydrogen sulfide concentration water, testing was carried out with PCMX concentrations up to 100 ppm. […] For the 24 ppm hydrogen sulfide concentration water, testing was carried out with PCMX concentrations up to 125 ppm.

[2] = tested on: acid producing bacteria (APB); assay: microbiological kill study in field water (bottle growth test), acid producing bacteria; type: cell-based; settings: field water from a well in Texas; active biocide 94 to 500 ppm tested
Protocol: as §1, §2, §3, §4

[3] = cited from earlier work

N#CC(Br)(Br)C(N)=O [DBNPA, dibromocyanoacetamide]
active biocide concentration with complete kill of SRB [1]: 20 ppm | active biocide concentration with complete kill of APB [2]: 20 ppm

CN1CSC(=S)N(C)C1 [Dazomet]
active biocide concentration with complete kill of SRB [1]: > 270 ppm | active biocide concentration with complete kill of APB [2]: > 270 ppm | hydrolysis half life [3]: 0.15 days

O=CCCCC=O [glutaraldehyde]
active biocide concentration with complete kill of SRB [1]: 250 ppm | active biocide concentration with complete kill of APB [2]: 250 ppm

tetrakis hydroxylmethyl phosphonium sulfate [THPS]
active biocide concentration with complete kill of SRB [1]: 150 ppm | active biocide concentration with complete kill of APB [2]: 150 ppm
